In patent publication US9549932B2, “2-(morpholin-4-yl)-1,7-naphthyridines” (BAYER PHARMA AKTIENGESELLSCHAFT, priority 2014, dated 2017):

These molecules were tested against full-length human ATR protein (Homo sapiens (Human), UniProt Q13535) (assay: Binding assay ATR (TR-FRET tracer displacement)). Conditions: tracer A, TR-FRET; read-out: ATR binding (tracer A) IC50.
full-length human ATR protein, sequence (Q13535 other isoform, or with tags, fused parts or gaps): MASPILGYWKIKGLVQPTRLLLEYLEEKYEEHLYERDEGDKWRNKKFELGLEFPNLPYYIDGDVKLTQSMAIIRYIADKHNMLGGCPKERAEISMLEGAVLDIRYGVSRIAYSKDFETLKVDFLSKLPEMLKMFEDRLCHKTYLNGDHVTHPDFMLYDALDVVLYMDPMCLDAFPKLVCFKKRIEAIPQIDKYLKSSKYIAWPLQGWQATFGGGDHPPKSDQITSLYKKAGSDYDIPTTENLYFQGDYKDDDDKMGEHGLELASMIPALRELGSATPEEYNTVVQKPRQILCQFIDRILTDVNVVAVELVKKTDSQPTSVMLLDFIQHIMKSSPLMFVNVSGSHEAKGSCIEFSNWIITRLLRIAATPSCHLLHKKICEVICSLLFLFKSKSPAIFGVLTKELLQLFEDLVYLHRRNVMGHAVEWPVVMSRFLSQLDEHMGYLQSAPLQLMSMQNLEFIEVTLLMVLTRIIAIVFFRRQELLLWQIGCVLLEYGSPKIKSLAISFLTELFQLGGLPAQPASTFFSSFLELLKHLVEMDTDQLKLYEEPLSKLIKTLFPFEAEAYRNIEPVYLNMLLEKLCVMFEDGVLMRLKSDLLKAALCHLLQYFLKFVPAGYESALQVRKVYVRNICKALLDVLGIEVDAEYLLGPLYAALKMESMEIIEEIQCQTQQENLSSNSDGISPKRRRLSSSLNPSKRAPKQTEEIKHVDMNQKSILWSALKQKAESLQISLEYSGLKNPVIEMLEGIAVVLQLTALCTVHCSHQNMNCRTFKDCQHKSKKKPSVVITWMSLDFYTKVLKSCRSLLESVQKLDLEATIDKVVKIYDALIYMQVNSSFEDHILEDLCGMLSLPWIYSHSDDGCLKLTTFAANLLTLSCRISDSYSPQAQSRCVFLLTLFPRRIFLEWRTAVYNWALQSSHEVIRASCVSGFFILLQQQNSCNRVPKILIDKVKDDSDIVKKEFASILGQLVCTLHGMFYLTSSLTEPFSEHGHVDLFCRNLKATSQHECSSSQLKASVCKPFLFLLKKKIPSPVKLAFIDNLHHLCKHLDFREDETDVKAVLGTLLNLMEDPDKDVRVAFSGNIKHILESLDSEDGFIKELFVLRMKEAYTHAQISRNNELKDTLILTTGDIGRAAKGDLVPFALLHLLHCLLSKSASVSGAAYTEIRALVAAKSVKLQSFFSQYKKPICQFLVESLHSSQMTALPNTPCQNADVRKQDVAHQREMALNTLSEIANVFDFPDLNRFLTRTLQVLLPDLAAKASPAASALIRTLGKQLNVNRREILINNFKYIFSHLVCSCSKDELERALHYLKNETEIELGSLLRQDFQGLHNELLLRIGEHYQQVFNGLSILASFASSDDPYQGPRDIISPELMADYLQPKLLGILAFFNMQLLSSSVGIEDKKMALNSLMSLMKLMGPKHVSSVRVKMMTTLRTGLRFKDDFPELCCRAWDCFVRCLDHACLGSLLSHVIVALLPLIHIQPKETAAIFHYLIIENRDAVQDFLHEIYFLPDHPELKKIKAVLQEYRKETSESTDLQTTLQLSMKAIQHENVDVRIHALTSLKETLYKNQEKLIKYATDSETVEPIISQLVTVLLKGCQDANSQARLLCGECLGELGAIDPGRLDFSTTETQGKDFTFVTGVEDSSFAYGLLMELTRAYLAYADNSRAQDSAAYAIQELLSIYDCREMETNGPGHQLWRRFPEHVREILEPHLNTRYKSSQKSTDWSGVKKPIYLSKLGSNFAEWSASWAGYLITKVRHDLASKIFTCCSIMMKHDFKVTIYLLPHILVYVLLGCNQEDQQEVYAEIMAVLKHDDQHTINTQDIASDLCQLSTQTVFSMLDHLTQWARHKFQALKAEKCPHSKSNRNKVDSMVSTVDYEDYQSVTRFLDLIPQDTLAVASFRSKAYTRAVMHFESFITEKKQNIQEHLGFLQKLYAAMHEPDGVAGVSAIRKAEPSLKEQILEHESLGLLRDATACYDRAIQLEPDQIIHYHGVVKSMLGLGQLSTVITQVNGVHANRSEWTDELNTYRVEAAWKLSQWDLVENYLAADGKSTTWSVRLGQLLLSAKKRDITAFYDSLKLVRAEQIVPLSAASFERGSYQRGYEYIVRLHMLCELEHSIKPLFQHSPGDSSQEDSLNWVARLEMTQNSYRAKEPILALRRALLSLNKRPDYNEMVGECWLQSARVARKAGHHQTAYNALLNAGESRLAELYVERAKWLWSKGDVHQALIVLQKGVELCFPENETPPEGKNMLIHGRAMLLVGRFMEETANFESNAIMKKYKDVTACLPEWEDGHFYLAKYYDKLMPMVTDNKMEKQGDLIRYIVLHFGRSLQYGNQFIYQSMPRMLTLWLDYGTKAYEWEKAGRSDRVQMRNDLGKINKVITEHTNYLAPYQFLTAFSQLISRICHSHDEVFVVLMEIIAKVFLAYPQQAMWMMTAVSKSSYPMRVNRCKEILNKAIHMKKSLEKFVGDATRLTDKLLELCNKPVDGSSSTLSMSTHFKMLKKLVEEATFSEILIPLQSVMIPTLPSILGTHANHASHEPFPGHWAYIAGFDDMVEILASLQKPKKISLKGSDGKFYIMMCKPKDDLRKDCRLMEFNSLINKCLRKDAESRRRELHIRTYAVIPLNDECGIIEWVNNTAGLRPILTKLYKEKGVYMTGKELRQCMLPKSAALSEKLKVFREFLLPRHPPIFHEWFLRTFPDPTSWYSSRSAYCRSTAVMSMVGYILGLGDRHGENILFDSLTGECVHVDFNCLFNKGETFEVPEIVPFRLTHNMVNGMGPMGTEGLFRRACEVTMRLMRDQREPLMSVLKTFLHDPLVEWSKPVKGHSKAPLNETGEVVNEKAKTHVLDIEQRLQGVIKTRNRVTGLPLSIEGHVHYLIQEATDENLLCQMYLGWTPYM
full-length human ATR protein, sequence (Q8WXE1 other isoform, or with tags, fused parts or gaps partner): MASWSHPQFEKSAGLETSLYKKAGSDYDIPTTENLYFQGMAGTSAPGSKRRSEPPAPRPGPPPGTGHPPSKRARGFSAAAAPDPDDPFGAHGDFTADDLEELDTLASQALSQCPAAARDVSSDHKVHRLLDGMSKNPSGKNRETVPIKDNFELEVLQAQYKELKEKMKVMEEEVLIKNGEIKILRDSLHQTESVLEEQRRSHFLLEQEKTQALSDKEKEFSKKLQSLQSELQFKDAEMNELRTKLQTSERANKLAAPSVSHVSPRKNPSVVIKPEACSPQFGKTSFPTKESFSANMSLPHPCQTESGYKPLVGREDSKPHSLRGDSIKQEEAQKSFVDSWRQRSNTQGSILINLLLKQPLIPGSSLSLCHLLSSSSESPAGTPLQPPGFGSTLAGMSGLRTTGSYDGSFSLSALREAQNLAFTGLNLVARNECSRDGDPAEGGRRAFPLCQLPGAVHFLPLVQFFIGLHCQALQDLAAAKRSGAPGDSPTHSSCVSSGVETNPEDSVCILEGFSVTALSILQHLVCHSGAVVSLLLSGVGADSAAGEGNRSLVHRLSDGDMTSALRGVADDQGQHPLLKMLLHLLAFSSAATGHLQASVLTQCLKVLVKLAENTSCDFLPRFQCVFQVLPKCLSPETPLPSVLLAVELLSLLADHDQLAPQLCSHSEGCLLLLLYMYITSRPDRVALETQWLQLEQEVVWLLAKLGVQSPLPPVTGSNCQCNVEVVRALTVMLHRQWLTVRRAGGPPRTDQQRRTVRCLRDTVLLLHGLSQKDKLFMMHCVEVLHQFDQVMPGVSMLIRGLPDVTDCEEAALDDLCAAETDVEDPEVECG
How it was run: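 Full-length human GST-ATR co-purified with ATRIP, pre-complexed 30 min at 22 °C with anti-GST-Tb antibody, then pre-bound with compound 10 min. Tracer A or B added (2 µl of 100 nM solution), 30 min at 22 °C.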
With `Fc1cnccc1-c1cc(N2CCOCC2)nc2c(-c3ccn[nH]3)nccc12` [Example 365, 4-(3-fluoropyridin-4-yl)-2-(morpholin-4-yl)-8-(1H-pyrazol-5-yl)-1,7-naphthyridine] the IC50 was 103 nM.
Molecule `Fc1ccc(-c2cc(N3CCOCC3)nc3c(-c4ccn[nH]4)nccc23)c(F)n1` [Example 366, 4-(2,6-difluoropyridin-3-yl)-2-(morpholin-4-yl)-8-(1H-pyrazol-5-yl)-1,7-naphthyridine] has an IC50 of 52.1 nM.
Work on `Cn1cc(-c2cc(N3CCOCC3)nc3c(-c4ccn[nH]4)nccc23)cn1` [Example 367, 4-(1-methyl-1H-pyrazol-4-yl)-2-(morpholin-4-yl)-8-(1H-pyrazol-5-yl)-1,7-naphthyridine] yielded an IC50 of 215 nM.
`COc1ccc2c(c1)cc(-c1cc(N3CCOCC3)nc3c(-c4ccn[nH]4)nccc13)n2C(=O)OC(C)(C)C` [Example 368, tert-butyl 5-methoxy-2-[2-(morpholin-4-yl)-8-(1H-pyrazol-5-yl)-1,7-naphthyridin-4-yl]-1H-indole-1-carboxylate] gave an IC50 of 3950 nM.
Molecule `c1cc(-c2nccc3c(-c4ccc(N5CCOCC5)nc4)cc(N4CCOCC4)nc23)[nH]n1` [Example 369, 2-(morpholin-4-yl)-4-[6-(morpholin-4-yl)pyridin-3-yl]-8-(1H-pyrazol-5-yl)-1,7-naphthyridine] has an IC50 of 115 nM.
`Cc1cscc1-c1cc(N2CCOCC2)nc2c(-c3ccn[nH]3)nccc12` [Example 370, 4-(4-methylthiophen-3-yl)-2-(morpholin-4-yl)-8-(1H-pyrazol-5-yl)-1,7-naphthyridine] gave an IC50 of 35 nM.
In the case of `c1csc(-c2cc(N3CCOCC3)nc3c(-c4ccn[nH]4)nccc23)c1` [Example 371, 2-(morpholin-4-yl)-8-(1H-pyrazol-5-yl)-4-(thiophen-2-yl)-1,7-naphthyridine], the IC50 is reported as 122 nM.
For `c1cc(-c2nccc3c(-c4ccsc4)cc(N4CCOCC4)nc23)[nH]n1` [Example 372, 2-(morpholin-4-yl)-8-(1H-pyrazol-5-yl)-4-(thiophen-3-yl)-1,7-naphthyridine], the IC50 was 134 nM.
`Cc1ccsc1-c1cc(N2CCOCC2)nc2c(-c3ccn[nH]3)nccc12` [Example 373, 4-(3-methylthiophen-2-yl)-2-(morpholin-4-yl)-8-(1H-pyrazol-5-yl)-1,7-naphthyridine] gave an IC50 of 38.1 nM.
`COc1ccncc1-c1cc(N2CCOCC2)nc2c(-c3ccn[nH]3)nccc12` [Example 375, 4-(4-methoxypyridin-3-yl)-2-(morpholin-4-yl)-8-(1H-pyrazol-5-yl)-1,7-naphthyridine] gave an IC50 of 894 nM.
Molecule `Cc1ccc2c(c1)cc(-c1cc(N3CCOCC3)nc3c(-c4ccn[nH]4)nccc13)n2C(=O)OC(C)(C)C` [Example 377, tert-butyl 5-methyl-2-[2-(morpholin-4-yl)-8-(1H-pyrazol-5-yl)-1,7-naphthyridin-4-yl]-1H-indole-1-carboxylate] has an IC50 of 2990 nM.
For `Cc1noc(C)c1-c1cc(N2CCOCC2)nc2c(-c3ccn[nH]3)nccc12` [Example 379, 4-(3,5-dimethyl-1,2-oxazol-4-yl)-2-(morpholin-4-yl)-8-(1H-pyrazol-5-yl)-1,7-naphthyridine], the IC50 was 69.8 nM.
Molecule `c1cnc2c(-c3cc(N4CCOCC4)nc4c(-c5ccn[nH]5)nccc34)cccc2c1` [Example 380, 2-(morpholin-4-yl)-8-(1H-pyrazol-5-yl)-4-(quinolin-8-yl)-1,7-naphthyridine] has an IC50 of 1460 nM.
`Cc1ccc(-c2cc(N3CCOCC3)nc3c(-c4ccn[nH]4)nccc23)s1` [Example 381, 4-(5-methylthiophen-2-yl)-2-(morpholin-4-yl)-8-(1H-pyrazol-5-yl)-1,7-naphthyridine] was tested, and the IC50 was 121 nM.
`CCOc1ccc(-c2cc(N3CCOCC3)nc3c(-c4ccn[nH]4)nccc23)cn1` [Example 382, 4-(6-ethoxypyridin-3-yl)-2-(morpholin-4-yl)-8-(1H-pyrazol-5-yl)-1,7-naphthyridine] gave an IC50 of 199 nM.
Molecule `CCOc1ncccc1-c1cc(N2CCOCC2)nc2c(-c3ccn[nH]3)nccc12` [Example 383, 4-(2-ethoxypyridin-3-yl)-2-(morpholin-4-yl)-8-(1H-pyrazol-5-yl)-1,7-naphthyridine] has an IC50 of 239 nM.
Molecule `c1cnc2ccc(-c3cc(N4CCOCC4)nc4c(-c5ccn[nH]5)nccc34)cc2c1` [Example 384, 2-(morpholin-4-yl)-8-(1H-pyrazol-5-yl)-4-(quinolin-6-yl)-1,7-naphthyridine] has an IC50 of 89.2 nM.
Work on `Nc1ccc(-c2cc(N3CCOCC3)nc3c(-c4ccn[nH]4)nccc23)cn1` [Example 386, 5-[2-(morpholin-4-yl)-8-(1H-pyrazol-5-yl)-1,7-naphthyridin-4-yl]pyridin-2-amine] yielded an IC50 of 173 nM.
In the case of `c1cc(-c2nccc3c(-c4cc[nH]n4)cc(N4CCOCC4)nc23)[nH]n1` [Example 387, 2-(morpholin-4-yl)-4-(1H-pyrazol-3-yl)-8-(1H-pyrazol-5-yl)-1,7-naphthyridine], the IC50 is reported as 218 nM.
Work on `Cc1ccc(-c2cc(N3CCOCC3)nc3c(-c4ccn[nH]4)nccc23)cn1` [Example 388, 4-(6-methylpyridin-3-yl)-2-(morpholin-4-yl)-8-(1H-pyrazol-5-yl)-1,7-naphthyridine] yielded an IC50 of 79.1 nM.
For `Cn1cccc1-c1cc(N2CCOCC2)nc2c(-c3ccn[nH]3)nccc12` [Example 389, 4-(1-methyl-1H-pyrrol-2-yl)-2-(morpholin-4-yl)-8-(1H-pyrazol-5-yl)-1,7-naphthyridine], the IC50 was 26.6 nM.
In the case of `Oc1ccc(-c2cc(N3CCOCC3)nc3c(-c4ccn[nH]4)nccc23)cn1` [Example 390, 5-[2-(morpholin-4-yl)-8-(1H-pyrazol-5-yl)-1,7-naphthyridin-4-yl]pyridin-2-ol], the IC50 is reported as 663 nM.
`Fc1cncc(-c2cc(N3CCOCC3)nc3c(-c4ccn[nH]4)nccc23)c1` [Example 394, 4-(5-fluoropyridin-3-yl)-2-(morpholin-4-yl)-8-(1H-pyrazol-5-yl)-1,7-naphthyridine] showed an IC50 of 119 nM.
`CSc1ncc(-c2cc(N3CCOCC3)nc3c(-c4ccn[nH]4)nccc23)cn1` [Example 395, 4-[2-(methylsulfanyl)pyrimidin-5-yl]-2-(morpholin-4-yl)-8-(1H-pyrazol-5-yl)-1,7-naphthyridine] showed an IC50 of 149 nM.
`c1cc(-c2nccc3c(-c4cnc(NC5CC5)nc4)cc(N4CCOCC4)nc23)[nH]n1` [Example 396, N-cyclopropyl-5-[2-(morpholin-4-yl)-8-(1H-pyrazol-5-yl)-1,7-naphthyridin-4-yl]pyrimidin-2-amine] showed an IC50 of 174 nM.
For `c1cc(-c2cc(N3CCOCC3)nc3c(-c4ccn[nH]4)nccc23)c2ccncc2c1` [Example 397, 4-(isoquinolin-5-yl)-2-(morpholin-4-yl)-8-(1H-pyrazol-5-yl)-1,7-naphthyridine], the IC50 was 95.5 nM.
`CNC(=O)c1ccc(-c2cc(N3CCOCC3)nc3c(-c4ccn[nH]4)nccc23)cn1` [Example 398, N-methyl-5-[2-(morpholin-4-yl)-8-(1H-pyrazol-5-yl)-1,7-naphthyridin-4-yl]pyridine-2-carboxamide] was tested, and the IC50 was 120 nM.
For `CC(C)(C)NC(=O)c1cncc(-c2cc(N3CCOCC3)nc3c(-c4ccn[nH]4)nccc23)c1` [Example 399, N-tert-butyl-5-[2-(morpholin-4-yl)-8-(1H-pyrazol-5-yl)-1,7-naphthyridin-4-yl]pyridine-3-carboxamide], the IC50 was 618 nM.
In the case of `CSc1cncc(-c2cc(N3CCOCC3)nc3c(-c4ccn[nH]4)nccc23)c1` [Example 400, 4-[5-(methylsulfanyl)pyridin-3-yl]-2-(morpholin-4-yl)-8-(1H-pyrazol-5-yl)-1,7-naphthyridine], the IC50 is reported as 300 nM.
Molecule `c1cc(-c2nccc3c(-c4ccnc5[nH]ccc45)cc(N4CCOCC4)nc23)[nH]n1` [Example 401, 2-(morpholin-4-yl)-8-(1H-pyrazol-5-yl)-4-(1H-pyrrolo[2,3-b]pyridin-4-yl)-1,7-naphthyridine] has an IC50 of 87.5 nM.
`Nc1ncccc1-c1cc(N2CCOCC2)nc2c(-c3ccn[nH]3)nccc12` [Example 402, 3-[2-(morpholin-4-yl)-8-(1H-pyrazol-5-yl)-1,7-naphthyridin-4-yl]pyridin-2-amine] gave an IC50 of 299 nM.
In the case of `COC(=O)c1cc(-c2cc(N3CCOCC3)nc3c(-c4ccn[nH]4)nccc23)cs1` [Example 403, methyl 4-[2-(morpholin-4-yl)-8-(1H-pyrazol-5-yl)-1,7-naphthyridin-4-yl]thiophene-2-carboxylate], the IC50 is reported as 194 nM.
`COc1ncc(C(F)(F)F)cc1-c1cc(N2CCOCC2)nc2c(-c3ccn[nH]3)nccc12` [Example 404, 4-[2-methoxy-5-(trifluoromethyl)pyridin-3-yl]-2-(morpholin-4-yl)-8-(1H-pyrazol-5-yl)-1,7-naphthyridine] showed an IC50 of 424 nM.
`CC(C)Oc1ncccc1-c1cc(N2CCOCC2)nc2c(-c3ccn[nH]3)nccc12` [Example 405, 2-(morpholin-4-yl)-4-[2-(propan-2-yloxy)pyridin-3-yl]-8-(1H-pyrazol-5-yl)-1,7-naphthyridine] gave an IC50 of 419 nM.
Molecule `CC(C)(C)n1cc(-c2cc(N3CCOCC3)nc3c(-c4ccn[nH]4)nccc23)cn1` [Example 407, 4-(1-tert-butyl-1H-pyrazol-4-yl)-2-(morpholin-4-yl)-8-(1H-pyrazol-5-yl)-1,7-naphthyridine] has an IC50 of 309 nM.
`c1cc(-c2nccc3c(N4CCCCC4)cc(N4CCOCC4)nc23)[nH]n1` [Example 408, 2-(morpholin-4-yl)-4-(piperidin-1-yl)-8-(1H-pyrazol-5-yl)-1,7-naphthyridine] was tested, and the IC50 was 65.1 nM.
Molecule `OC1CCN(c2cc(N3CCOCC3)nc3c(-c4ccn[nH]4)nccc23)CC1` [Example 409, 1-[2-(morpholin-4-yl)-8-(1H-pyrazol-5-yl)-1,7-naphthyridin-4-yl]piperidin-4-ol] has an IC50 of 139 nM.
For `CN(c1ccccc1)c1cc(N2CCOCC2)nc2c(-c3ccn[nH]3)nccc12` [Example 410, N-methyl-2-(morpholin-4-yl)-N-phenyl-8-(1H-pyrazol-5-yl)-1,7-naphthyridin-4-amine], the IC50 was 153 nM.
For `CCCN(C)c1cc(N2CCOCC2)nc2c(-c3ccn[nH]3)nccc12` [Example 412, N-methyl-2-(morpholin-4-yl)-N-propyl-8-(1H-pyrazol-5-yl)-1,7-naphthyridin-4-amine], the IC50 was 162 nM.
